{
  "source": "patent US20040248300A1",
  "about": "“Enhanced gene expression using vectors” (priority 2001, published 2004)",
  "system": "human foetal foreskin fibroblasts (HFFF2)",
  "test": "Responsiveness of the in1360 genome to Trichostatin A: β-galactosidase activity in infected HFFF2 cells",
  "assay_type": "cell-based",
  "procedure": "Trichostatin A (TSA) is an agent that inhibits deacetylases. When it is added to cells, histones and other proteins involved in transcriptions become hyperacetylated, because they are not deacetylated. This frequently results in activation of gene expression. In the case of HSV-1 mutants, the genome is not responsive to TSA once the quiescent state has been established. Monolayers of HFFF2 cells were infected with in1360 and maintained at 38.5° C. At 8 days after infection, cells were either untreated or treated with 660 nM TSA. After maintenance at 38.5° C. for a further 2 days, extracts were made and β-galactosidase activities were measured. The extracts from untreated cells gave a value of 121 units (range 113-129), whereas extracts from TSA-treated cells gave a value of 806 unites (range 739-873), a stimulation of 6.7-fold.",
  "data": [
    {"compound": "CC(/C=C/C(=O)NO)=C\\[C@@H](C)C(=O)c1ccc(N(C)C)cc1", "note": "[TSA, Trichostatin A]", "values": [
      {"measurement": "β-galactosidase activity, extracts from TSA-treated cells", "setting": "660 nM TSA added 8 days after infection, a further 2 days at 38.5° C., range 739-873", "value": 806, "unit": "unites"},
      {"measurement": "effect of TSA on X-gal stained cells (in words)", "setting": "660 nM TSA for 2 days, 10 days after infection", "value": "increased the number of positive cells and the intensity of straining"},
      {"measurement": "stimulation of β-galactosidase activity by TSA", "setting": "660 nM TSA versus untreated", "value": 6.7, "unit": "fold"}
    ]}
  ]
}
